Test results reported in patent US8748419B2, “Treating obesity with muscarinic receptor M1 antagonists” (priority 2006, dated 2014).

What was measured:
[1] = Reduction in weight gain of rats on a high fat diet (two-week treatment); format: in vivo, Sprague-Dawley rats; settings: for % Reduction: treatment minus vehicle % weight gain
Protocol: Reduction in Weight Gain: Three- to four-month-old (475-550 grams) male, Sprague-Dawley rats (individually housed) were used to assess compounds for their ability to prevent weight gain. At the onset of chronic experiments, rats had been maintained (ad libitum access) on a “high fat” diet (BioServ Diet #F3282 or Research Diets #12451) for approximately one month. Individual body weights and water consumptions were recorded three times per week throughout the duration of the experiment. After approximately two weeks of data collection, rats were counter-balanced to produce treatment groups with equivalent mean body weights. Under isofluorane-induced anesthesia, rats were surgically implanted (subscapular, subcutaneous [sc] placement) with osmotic mini-pumps (Alzet 2mL2) containing the appropriate drug concentration (based on mean body weights and calculated durations of delivery). Alternatively, for studies using the oral route of administration, rats were dosed by gavage daily over 14 days at a volume of 3 mL/kg. Data collection was continued under drug treatment for approximately two more weeks. Change in body weight (expressed in grams) was calculated for the treatment interval. In this assay, vehicle-treated rats typically gain approximately 35-40 grams (+9%) over the two-week interval. Treatment effects are presented in Table 3 as % Weight Gain=[(Body Weight at End of Drug Infusion−Baseline Body Weight)/Baseline Body Weight]×100%, for both Vehicle and Treatment groups; as well as % Reduction=(% Weight Gain for Treatment group−% Weight Gain for Vehicle group). Body weights throughout the treatment period are presented in FIGS. 11-15 as the percentage of baseline body weight. Similar superscripts in the Dose column of Table 3 denote values derived from the same experiment (to facilitate comparisons between individual treatments and co-administrations). Statistical analyses were performed using a 1-way ANOVA (analysis of variance) followed by a Bonferroni multiple comparison test with the overall alpha set at 0.05. In Table 3, asterisks (*) denote significant effects compared to vehicle-treated rats, while letters (a or b) denote significant effects compared to rats treated with a single compound (“a” for significance from antidepressant and “b” for significance from telenzepine). In Table 3, one symbol denotes p<0.05, two symbols denote p<0.01 and three symbols denote p<0.001). The symbols used for denoting statistical significance may be different in the corresponding figures.

[2] = Appetite suppression: high fat food consumption in fasted rats (4-Hour and 24-Hour Consumption); format: in vivo, Sprague-Dawley rats; settings: for reduction in effective dose of sibutramine: 30 mg/kg of telenzepine co-administered, effective dose lowered to 1 mg/kg
Description: Appetite Suppression: Three-month-old (300-350 grams) male, Sprague-Dawley rats (individually housed) were used to assess compounds for their appetite suppressant effects. Rats were acclimatized to a “high fat” food diet (BioServ Diet #F3282 or Research Diets #12451) for two weeks prior to testing (access to food and water ad libitum). One day prior to the experiment (at 5:00 PM), food was removed from the cages in order to motivate feeding when the food was returned the following morning (water remained available throughout the experiment). Prior to presentation of the food, rats (n=8-10/dose group) were dosed intraperitoneally (ip) or orally (po) with the compound under investigation, returned to their home cage and immediately given a pre-weighed amount of food. Four hours after administration, the food was removed from the cage, weighed, recorded (4-Hour Consumption) and returned to the rat until the following morning. Twenty-four hours after administration, the remaining food was again weighed and recorded (24-Hour Consumption). Cumulative consumption (expressed in grams) was calculated for both the four and the twenty-four hour intervals. In this assay, vehicle-treated rats typically consume approximately 8 grams over the four-hour interval and approximately 25 grams over the twenty-four-hour interval.
Treatment effects are presented in Table 1 and FIGS. 1-5 (4-Hour Consumption) and Table 2 and FIGS. 6-10 (24-Hour Consumption). The effects are given as both Raw Consumption (in grams ±SEM [1 standard error of the mean]) and as % Reduction in 4-Hour or 24-Hour Consumption=[1-(Consumption following Drug Treatment/Consumption following Vehicle Treatment)]×100%. Similar superscripts in the Dose column of Tables 1 and 2 denote values derived from the same experiment (to facilitate comparisons between individual treatments and co-administrations). Statistical analyses were performed using a 1-way ANOVA (analysis of variance) followed by a Bonferroni multiple comparison test with the overall alpha set at 0.05. In Tables 1 and 2, asterisks (*) denote significant effects compared to vehicle-treated rats, while letters (a or b) denote significant effects compared to rats treated with a single compound (“a” for significance from antidepressant and “b” for significance from telenzepine). In Tables 1 and 2, one symbol denotes p<0.05, two symbols denote p<0.01 and three symbols denote p<0.001). The symbols used for denoting statistical significance may be different in the corresponding figures.

[3] = local microinjection; cited from earlier work
[4] = 24 h, 10 mg/kg po, experiment d

In the case of `CC(C)CC(N(C)C)C1(c2ccc(Cl)cc2)CCC1` (stereo not drawn) [Sibutramine, sibutramine], the “Treatment: % Weight Gain” value ([1]; 0.3 mg/kg po, experiment d) is reported as 4.7 ± 0.5%, the “% Reduction” value ([1]; 0.3 mg/kg po, experiment d) is reported as −1.7% and the “Treatment: % Weight Gain” value ([1]; 3 mg/kg po) is reported as −5.7 ± 1.2%. For the same compound, the “% Reduction” value ([1]; 3 mg/kg po) was −6.0%, the “reduction of weight gain against vehicle treated controls (reduction from baseline)” value ([1]; given alone) was 6% and the “% Reduction in Consumption” value ([2]; 4 h, 1 mg/kg po, experiment c) was 0%. The “Treatment Consumption” value ([2]; 4 h, 1 mg/kg po, experiment c) was 10.1 ± 1.24 g/4 Hrs, the “% Reduction in Consumption” value ([2]; 4 h, 1 mg/kg po, experiment d) was 28% and the “Treatment Consumption” value ([2]; 4 h, 1 mg/kg po, experiment d) was 4.9 ± 0.68 g/4 Hrs. For the same compound, the “% Reduction in Consumption” value ([2]; 4 h, 3 mg/kg po, experiment c) was 23%, the “Treatment Consumption” value ([2]; 4 h, 3 mg/kg po, experiment c) was 8.0 ± 1.29 g/4 Hrs and the “% Reduction in Consumption” value ([2]; 4 h, 3 mg/kg po, experiment d) was 54%. The “Treatment Consumption” value ([2]; 4 h, 3 mg/kg po, experiment d) was 3.2 ± 0.33 g/4 Hrs, the “% Reduction in Consumption” value ([2]; 4 h, 10 mg/kg po, experiment d) was 38% and the “Treatment Consumption” value ([2]; 4 h, 10 mg/kg po, experiment d) was 4.3 ± 0.61 g/4 Hrs. The “reduction in effective dose of sibutramine” value ([2]; 4 hour consumption) was 3 fold, the “% Reduction in Consumption” value ([2]; 24 h, 1 mg/kg po, experiment c) was 10% and the “Treatment Consumption” value ([2]; 24 h, 1 mg/kg po, experiment c) was 27.4 ± 1.78 g/24 Hrs. The “% Reduction in Consumption” value ([2]; 24 h, 1 mg/kg po, experiment d) was 16%, the “Treatment Consumption” value ([2]; 24 h, 1 mg/kg po, experiment d) was 20.7 ± 1.05 g/24 Hrs and the “% Reduction in Consumption” value ([2]; 24 h, 3 mg/kg po, experiment c) was 28%. For the same compound, the “Treatment Consumption” value ([2]; 24 h, 3 mg/kg po, experiment c) was 21.9 ± 1.98 g/24 Hrs, the “% Reduction in Consumption” value ([2]; 24 h, 3 mg/kg po, experiment d) was 38% and the “Treatment Consumption” value ([2]; 24 h, 3 mg/kg po, experiment d) was 15.4 ± 1.22 g/24 Hrs. The “% Reduction in Consumption” value [2, 4] was 52%, the “Treatment Consumption” value [2, 4] was 11.9 ± 1.15 g/24 Hrs and the “reduction in effective dose of sibutramine” value ([2]; 24 hour consumption) was 10 fold. The effect on consumption ([2]; given alone, oral administration required for a significant reduction) was “effective”.

In the case of `CN[C@H]1CC[C@@H](c2ccc(Cl)c(Cl)c2)c2ccccc21` [Sertraline, sertraline], the “Treatment: % Weight Gain” value ([1]; 5 mg/kg sc) is reported as 7.2 ± 1.2%, the “% Reduction” value ([1]; 5 mg/kg sc) is reported as −2.1% and the “Treatment: % Weight Gain” value ([1]; 10 mg/kg sc) is reported as 6.0 ± 0.8%. The “% Reduction” value ([1]; 10 mg/kg sc) was −3.1%, the “reduction in body weight compared to vehicle treated rats” value ([1]; 15 mg/kg of sertraline alone) was 6.8% and the “Treatment: % Weight Gain” value ([1]; 15 mg/kg sc, experiment b) was 2.8 ± 0.8%. The “% Reduction” value ([1]; 15 mg/kg sc, experiment b) was −6.8%, the “Treatment: % Weight Gain” value ([1]; 20 mg/kg sc) was 2.8 ± 0.7% and the “% Reduction” value ([1]; 20 mg/kg sc) was −3.5%. For the same compound, the “Treatment Consumption” value ([2]; 4 h, 10 mg/kg ip, experiment a) was 6.0 ± 0.88 g/4 Hrs, the “% Reduction in Consumption” value ([2]; 4 h, 10 mg/kg ip, experiment a, 10 mg/kg) was 21% and the “% Reduction in Consumption” value ([2]; 4 h, 10 mg/kg ip, experiment a, listed as sertraline, 10 mg/kg) was 21%. The “Treatment Consumption” value ([2]; 4 h, 30 mg/kg ip, experiment a) was 5.6 ± 0.73 g/4 Hrs, the “% Reduction in Consumption” value ([2]; 4 h, 30 mg/kg ip, experiment a, 30 mg/kg) was 27% and the “% Reduction in Consumption” value ([2]; 4 h, 30 mg/kg ip, experiment a, listed as sertraline, 30 mg/kg) was 27%. The “Treatment Consumption” value ([2]; 24 h, 10 mg/kg ip, experiment a) was 23.5 ± 0.71 g/24 Hrs, the “% Reduction in Consumption” value ([2]; 24 h, 10 mg/kg ip, experiment a, 10 mg/kg) was 2% and the “% Reduction in Consumption” value ([2]; 24 h, 10 mg/kg ip, experiment a, listed as sertraline, 10 mg/kg) was 2%. For the same compound, the “Treatment Consumption” value ([2]; 24 h, 30 mg/kg ip, experiment a) was 17.1 ± 1.60 g/24 Hrs, the “% Reduction in Consumption” value ([2]; 24 h, 30 mg/kg ip, experiment a, 30 mg/kg) was 28% and the “% Reduction in Consumption” value ([2]; 24 h, 30 mg/kg ip, experiment a, listed as sertraline, 30 mg/kg) was 28%.

For `COc1ccc(C(CN(C)C)C2(O)CCCCC2)cc1` (stereo not drawn) [Venlafaxine, venlafaxine], the “reduction in body weight compared to vehicle treated rats” value ([1]; 30 mg/kg of venlafaxine alone) was 0.7%, the “Treatment: % Weight Gain” value ([1]; 30 mg/kg sc, experiment b) was 7.4 ± 0.5% and the “% Reduction” value ([1]; 30 mg/kg sc, experiment b) was −0.7%. The “Treatment Consumption” value ([2]; 4 h, 30 mg/kg ip, experiment b) was 6.1 ± 0.84 g/4 Hrs, the “% Reduction in Consumption” value ([2]; 4 h, 30 mg/kg ip, experiment b, 30 mg/kg) was 13% and the “% Reduction in Consumption” value ([2]; 4 h, 30 mg/kg ip, experiment b, listed as venlafaxine, 30 mg/kg) was 13%. For the same compound, the “Treatment Consumption” value ([2]; 24 h, 30 mg/kg ip, experiment b) was 24.9 ± 1.52 g/24 Hrs, the “% Reduction in Consumption” value ([2]; 24 h, 30 mg/kg ip, experiment b, 30 mg/kg) was 0% and the “% Reduction in Consumption” value ([2]; 24 h, 30 mg/kg ip, experiment b, listed as venlafaxine, 30 mg/kg) was 0%.

With `CN(C)CCCC1(c2ccc(F)cc2)OCc2cc(C#N)ccc21` (stereo not drawn) [Citalopram, citalopram] the “Treatment: % Weight Gain” value ([1]; 15 mg/kg sc, experiment a) was 6.2 ± 1.0%, the “% Reduction” value ([1]; 15 mg/kg sc, experiment a) was −2.4% and the “Treatment Consumption” value ([2]; 4 h, 25 mg/kg ip, experiment a) was 5.3 ± 0.72 g/4 Hrs. The “% Reduction in Consumption” value ([2]; 4 h, 25 mg/kg ip, experiment a, 25 mg/kg) was 31%, the “% Reduction in Consumption” value ([2]; 4 h, 25 mg/kg ip, experiment a, listed as citalopram, 25 mg/kg) was 31% and the “Treatment Consumption” value ([2]; 24 h, 25 mg/kg ip, experiment a) was 23.0 ± 0.71 g/24 Hrs. For the same compound, the “% Reduction in Consumption” value ([2]; 24 h, 25 mg/kg ip, experiment a, 25 mg/kg) was 4% and the “% Reduction in Consumption” value ([2]; 24 h, 25 mg/kg ip, experiment a, listed as citalopram, 25 mg/kg) was 4%.

In the case of `CN1CCN(CC(=O)N2c3ccccc3C(=O)Nc3cccnc32)CC1` [pirenzepine, 5,11-Dihydro-11-[(4-methyl-1-piperazinyl)acetyl]-6H-pyrido[2,3-b][1,4]benzodiazepin-6-one], the “dopamine efflux in the striatum” value [3] is listed as “decreased dopamine efflux”.

With `CC(C)(N)Cc1ccccc1` [Phentermine, phentermine] the “Treatment: % Weight Gain” value ([1]; 4 mg/kg sc, experiment c) was 4.2 ± 0.6% and the “% Reduction” value ([1]; 4 mg/kg sc, experiment c) was −1.1%.
